Key:
[1] = system: rat primary culture neurons; assay: OGD test, microscopic observation of cell morphology; conditions: added before OGD treatment; FIG. 2
[2] = system: rat primary culture cerebral cortex neurons; assay: OGD (oxygen glucose deprivation) test, LDH release; format: cell-based; conditions: added 12 h before OGD; 0.1, 1.0, 10 μM (galantamine 1.0, 10, 100 μM); FIG. 3
Excerpt: After culturing for 7 days or more, cells were subjected to OGD treatment. […] As an indicator for neurocyte protection effect, ratio of LDH release inhibition was used. […] Therefore, when cells are injured by OGD, LDH flows out from inside of the cells into extracellular solution. In this solution, LDH is present depending on the degree of injury of the cells (cell death). The amount of LDH present in the solution can be determined by adding pyruvic acid and NADH to the solution and measuring the decreasing ratio of NADH with an absorption spectrometer.
Subsequently, rat primary culture neurons were subjected to OGD treatment in the same manner as in the previous test.
Then, their effects on LDH release induced by OGD treatment were tested.

[3] = system: cultured rat septal area neurons; assay: Aβ(1-40) toxicity, LDH leakage from cultured septal area neurons; format: cell-based; conditions: siRNA 1 μmol/L added 24 h before and immediately before 15 μmol/L Aβ(1-40), 48 h; FIG. 12
Description: Septal area neurons were prepared from embryos (18-day-old embryos) of Wistar rats (Charles River Japan). The septal region (including septal area and basal forebrain) was cut out from embryonic brain and incubated in Ca^2+/Mg^2+-free Hanks' balanced salt solution containing 0.25% trypsin and 0.2 mg/ml DNase I at 37° C. for 15 minutes. […] Cells were plated on 96-well poly-D-lysine-coated culture plates at a concentration of 1.2×10^5 cells/well. The plated cells were cultured in a CO2 incubator (5% CO2, 37° C.). After one day, ⅔ of the medium was exchanged for the above-described DMEM containing 5% fetal calf serum. After three days, ⅔ of the medium was exchanged again for the above-described DMEM containing 5% fetal calf serum. After 6 days, the entire medium was exchanged for the above-described DMEM (this time, Gln is not contained) not containing serum.
As an indicator for cytotoxicity, LDH (lactate dehydrogenase) was measured. […] Forty-eight hours after the addition of Aβ(1-40), lactate dehydrogenase (LDH) activity in the medium was measured. At the same time, cells were solubilized with phosphate buffer (pH 7.4) containing 0.5% Triton X-100, followed by measurement of LDH in cells. […] The data were analyzed by analysis techniques of ANOVA and Welch's test.
LDH (lactate dehydrogenase) was measured as an indicator for cytotoxicity. […] The data were analyzed by ANOVA and Welch's test.

Molecule | protective effect against Aβ(1-40) toxicity (LDH) [3] | also measured
COc1cc2c(cc1OC)C(=O)C(CC1CCN(Cc3ccccc3)CC1)C2.Cl (stereo not shown) [Donepezil, 1-benzyl-4-[(5,6-dimethoxy-1-indanone)-2-yl]methylpiperidine] | – | protection of neurons by cell morphology [1]: neurons were protected by the addition of donepezil before OGD treatment
CCN(C)C(=O)Oc1cccc([C@H](C)N(C)C)c1 [Rivastigmine] | – | inhibition of LDH release (neurocyte protective effect) after OGD [2]: did not show any neurocyte protective effect
siRNA (i): double-stranded siRNA of acetylcholinesterase, SEQ ID NO: 1 and SEQ ID NO: 2 (chain 1 AAUGUCAGUGACUCUGUUUTT; chain 2 AAACAGAGUCACUGACAUUTT; chemistry not given here) | inhibit Aβ toxicity | –
siRNA (ii): double-stranded siRNA of acetylcholinesterase, SEQ ID NO: 3 and SEQ ID NO: 4 (chain 1 GCUGCCUCAAGAAAGUAUCTT; chain 2 GAUACUUUCUUGAGGCAGCTT; chemistry not given here) | inhibit Aβ toxicity | –

Source: patent publication US20070021397A1, “Neurocyte protective agent” (priority 2003, published 2007)
